Results taken from US10941435B2, “Methods and compositions for detecting or measuring caspases or apoptosis” (priority 2016, dated 2021).

How the values were obtained:
HeLa cells [1] = assay: Fluorescence microscopy and HCS staurosporine dose-response; assay type: cell-based; conditions: 5 hours; for recognition of apoptotic cells, imaging: 5 μM Compound 1 or 9 or 4 μM CELLEVENT Green 3/7, 10 μM to 0 μM staurosporine, FIG. 9A-9C; for dose-response curve of dye fluorescence to staurosporine: 5 μM dye, 10 μM to 0 μM staurosporine, CX5 HCS, FIG. 9D
Method: The dye/staurosporine stock solution was diluted 1:10 onto HeLa cells in complete media for a final concentration starting at 5 μM Compound 1 or Compound 9, or 4 μM CELLEVENT Green 3/7 and 10 μM staurosporine and ending at 0 μM staurosporine. After a 5 hour incubation at 37° C., live cells were imaged using white light, DAPI and FITC filters. The cells were then fixed and stained with HCS […]™ Deep Red stain (Thermo Fisher Scientific, Waltham, Mass.) and quantified on a […]™ CX5 High Content Screening (HCS) Platform (Thermo Fisher Scientific, Waltham, Mass.).

Jurkat cells [2] = assay: Flow cytometry of Jurkat cells +/- 0.5 μM staurosporine, with SYTOX Dead Cell Stain; assay type: cell-based; conditions: Jurkat cells +/- 0.5 μM staurosporine 3.5 hours, 1 μM dye 30 min, FIG. 7A/7B
Method: In yet another experiment, Jurkat cells were resuspended at 1×10^6 cells/ml in RPMI medium+10% FBS and aliquoted into 0.2 ml samples. The cells were treated with 0.5 μM Staurosporine (+STR) or without (−STR) for 3.5 hours at 37° C. […] 1 μl SYTOX™ Dead Cell Stain (Thermo Fisher Scientific, Waltham. Mass.) was added to the cells and incubated for at least 15 min. Cells were analyzed on an ATTUNE™ NXT flow cytometer as described above and were analyzed without washing.

BPAEC cells = assay: Dye toxicity experiment, 48 hour incubation, imaging; conditions: 5 μM dye 48 hours, then 1 μM staurosporine overnight
Method: In another experiment to look at dye toxicity. BPAEC cells were incubated overnight in growth media (DMEM+10% FBS). […] After the 48 hour incubation, DMSO (control) or 1 μM staurosporine (final concentration) was added to a subset of the dye-treated cells and incubated overnight at 37° C.

Jurkat cells [3] = assay: Flow cytometric detection of caspase activity and apoptosis, staurosporine dilution series; assay type: cell-based
Method: Jurkat cells in log phase were resuspended in complete medium (RPMI-1640, supplemented with 10% Fetal Bovine Serum, 2 mM L-glutamine & 55 U/mL) and adjusted to a concentration of 2×10^6 cells per milliliter. 100 μl of cells were aliquoted in each well of a 96-well, V-bottom microplate so that 8 dilutions in triplicate were tested for each substrate.
Drug dilutions for treating cells were created by adding 1000 μL of complete medium containing 2 μM Staurosporine, 1:2 dilutions of this were added to 500 μL of complete medium, so that a series of 8 dilutions of Staurosporine were created.
100 μL of the media/Staurosporine mixtures were added to each well so that 3 wells of cells contained the highest dose, and then repeated for the next set of 3 wells.
Cells were incubated at 37° C., 5% CO2 in a standard cell culture incubator for 4 hours.
After the 4 hour incubation, each well had 1 μL of caspase substrate added so that the final concentration of the substrate was 2 μM of substrate in 200 μL of media. […]
At the end of the incubation, cells were analyzed using an ATTUNE® NXT Acoustic Focusing Cytometer (Thermo Fisher Scientific, Waltham. Mass.) using the 488 nm excitation and 530/30 nm emission filters to detect CELLEVENT™ Green, or the 405 nm excitation laser and the 440/50 nm emission filters to detect Compound 1. […]

HeLa cells [4] = assay: Fluorescence microscopy detection of caspase activity and apoptosis, nuclear intensity and Z'; assay type: cell-based; conditions: 1 μM versus 1 nM staurosporine, 18 hour incubation, HCSStudio
Method: HeLa cells at a density of 7500 cells/well were incubated overnight in growth media (MEM+10% FBS. L-glutamine and Pen-Strep). Half of the plate was treated with 1 μM Staurosporine (FIG. 8B), while the other half was treated with 1 nM Staurosporine (FIG. 8A). After an 18 hour incubation (37° C., 5% CO2), all cells were incubated with SYT®82 (FIGS. 8A and 8B, left panels) and Compound 1 (FIGS. 8A and 8B, center panels). The average intensity of Compound 1 in the cellular nuclear region was calculated using HCSStudio (Compartmental Analysis Bioapplication), and a Z′ was determined (Z′=0.63).

Jurkat cells [5] = assay: Flow cytometry of Jurkat cells treated with 1 μM staurosporine for 1 hour, then Compound 1; assay type: cell-based; conditions: for positive population, density plots: not shown
Method: In another experiment, Jurkat cells treated with 1 μM Staurosporine for 1 hour (FIG. 5A) or untreated control cells (FIG. 5B) were then treated with Compound 1. Cells were then analyzed on an ATTUNE® NXT flow cytometer. The cells were oriented on a SSC/FSC plot to include both low and high side scatter cells, but to exclude debris and gated to exclude doublets (not shown).

CC(=O)N[C@@H](CC(=O)O)C(=O)N[C@@H](CCC(=O)O)C(=O)N[C@H](C(=O)N[C@@H](CC(=O)O)C(=O)NCCCCCN(C)c1ccc(-c2nc3ccc(-c4nc5ccc(N6CCN(C)CC6)cc5[nH]4)cc3[nH]2)cc1)C(C)C [Compound 9]
recognition of apoptotic cells, imaging (HeLa cells [1]): recognize apoptotic cells
dose-response curve of dye fluorescence to staurosporine (HeLa cells [1]): good induction of apoptosis
distinction of non-apoptotic from apoptotic cell populations (Jurkat cells [2]): distinguished non-apoptotic from apoptotic cell populations
detection of staurosporine-induced apoptotic cells after long incubation with dye (BPAEC cells): able to detect the staurosporine-induced apoptotic cells

CC(=O)N[C@@H](CC(=O)O)C(=O)N[C@@H](CCC(=O)O)C(=O)N[C@H](C(=O)N[C@@H](CC(=O)O)C(=O)NCCN(C)c1ccc(-c2nc3ccc(-c4nc5ccc(N6CCN(C)CC6)cc5[nH]4)cc3[nH]2)cc1)C(C)C [Compound 1]
positive cells (percent positive of intact single cells) (Jurkat cells [3]; 1 μM staurosporine 4 hours, 2 μM substrate 30 minutes, FIG. 4A/4B): 84.9%
detection of apoptosis over the entire staurosporine concentration range, CELLEVENT Green 3/7 versus Compound 1 (Jurkat cells [3]; 8 staurosporine dilutions in triplicate, 2 μM substrate, FIG. 3): essentially no difference
recognition of apoptotic cells, imaging (HeLa cells [1]): recognize apoptotic cells
dose-response curve of dye fluorescence to staurosporine (HeLa cells [1]): good induction of apoptosis
Z' from average intensity of Compound 1 in the cellular nuclear region (HeLa cells [4]): 0.63
detection of staurosporine-induced apoptotic cells after long incubation with dye (BPAEC cells): able to detect the staurosporine-induced apoptotic cells
Compound 1 positive cells, histograms (Jurkat cells [5]; Jurkat cells treated with 1 μM staurosporine for 1 hour, FIG. 5A): 3.49%
positive population, density plots (Jurkat cells [5]; Jurkat cells treated with 1 μM staurosporine for 1 hour): 3.55%
Compound 1 positive cells, histograms (Jurkat cells [5]; untreated control Jurkat cells (no staurosporine) stained with Compound 1, FIG. 5B): 1.30%
positive population, density plots (Jurkat cells [5]; untreated control Jurkat cells (no staurosporine) stained with Compound 1): 1.32%
